A melting point compilation (Tetko et al.; mined from patent text by program, amines drawn as free bases though some values may be those of a salt)

melting point [°C] | SMILES
145 to 146 | COC1=NC(C)=C(C(=O)OC(C)C)C(c2cccc([N+](=O)[O-])c2)N1C(=O)N(C)Cc1ccccc1 (stereo not drawn)
155 to 158 | CCOCCOc1ccc(-c2nc(-c3ccc(OC)cc3)nc(-c3ccc(OCCOCC)cc3O)n2)c(O)c1
228 to 230 | COc1cc(N2C(=O)c3ccccc3C2=O)c2nccc(C)c2c1Oc1cccc(C(F)(F)F)c1
233 to 237 | O=c1ccc(-c2ccc(OC3CCN(C4CCCC4)CC3)nc2)n[nH]1
193 to 194 | O=C(Oc1ccc(Oc2ccccc2)cc1)c1ccc(C(=O)Oc2ccc(Oc3ccccc3)cc2)cc1
222 to 224 | CC(=O)NCCn1ccc2ncnc(Nc3ccc(Oc4cccc5sncc45)c(Cl)c3)c21
205 to 207 | Cc1cc(C(O)(C(F)(F)F)C(F)(F)F)cc(C)c1NCC(N)=O
176 to 178 | CCn1c(=O)c2c(nc(/C=C/c3ccc(OC)c(C)c3)n2C)n(CC)c1=O
233 to 235 | Cn1cnc(COc2nn3c(-c4ccc(F)cc4)nnc3cc2-c2ccccc2)n1
128 to 130 | COC(=O)c1sc([N+](=O)[O-])cc1N=NN(C)C
102 to 105 | CCOC(=NC(=O)c1cccc(C)c1)N1Cc2ccccc2-c2ccccc2C1
187 to 188 | CC(=O)Nc1c(C(=O)c2cc(C)ccn2)[nH]c2cc(Cl)ccc12
121 to 122 | CNS(=O)(=O)c1ccc(Oc2ccc(N)cc2)cc1
125 to 127 | O=C(NC(O)C(=O)O)c1c(F)cccc1F (stereo not drawn)
228 to 233 | Cc1cc(F)c(Nc2ncnc3cc(NC(=O)CCN4CCOCC4)ccc23)cc1O
178 to 179 | COc1cc(Br)c2nc(-c3ccc(OC)c(F)c3)cc(Br)c2c1
165 | CSc1ccc(C(=O)c2cc(-c3ccccc3)c(N3CCOCC3)s2)cc1
268 to 271 | Cc1cc2c(cc1S(=O)(=O)N1CCOCC1)S(=O)(=O)NC(C1CCCCC1)N2 (stereo not drawn)
68 to 69 | CC(C)(c1ccc(Oc2ccc(N=C=O)cc2)cc1)c1ccc(Oc2ccc(N=C=O)cc2)cc1
84 to 85.6 | COc1ccc(N(C)c2ncnc3occ(C)c23)cc1
131 to 132 | CC1(C)C=C(N2CCCC2=O)c2cc(C#N)ccc2C1
116 to 118 | CC(=O)c1ccc(OC(C)CCCCC(=O)O)cc1O (stereo not drawn)
177 to 178 | CCOc1nn(Cc2ccc(OCc3nc4ccccc4n3C)cc2)cc1CCC(=O)O

melting point [°C] | SMILES
95 to 98 | Cc1cc(-c2cccc(NC(=O)C(C)(C)C)c2)cc2c1[C@H]1CCC(=O)N(C)[C@@H]1CC2
113 to 116 | Cc1c(-c2ccccc2)n(Cc2ccccc2)c2ccc(Br)cc12
85 | CCOC(c1ccccc1)(c1ccccc1)C(C)CNC (stereo not drawn)
109 to 111 | Cc1cc(C)c(CP(=O)(c2ccccc2)c2ccccc2)c(-c2ccc(F)c(C)c2)c1
83.1 to 84.3 | COc1ccc(NC(=O)c2ccccc2F)cc1
116 to 118 | CCCOc1ccccc1C(=O)Nc1cccnc1C(N)=O
135 to 136 | CCOC(=O)C(NC(C)=O)(C(=O)OCC)[C@@H]1CC(=O)C[C@H]1NC(=O)OC(C)(C)C (relative stereo)
150 to 151 | C=C(C)c1nc(CCC)n(Cc2ccc(-c3ccccc3C(=O)C(=O)O)cc2)c1C(=O)O
307 | Cc1nc2c3c(ccc2n1C)[C@H]1OCCO[C@@H]1[C@@H](c1ccccc1)O3
126 | Nc1c(I)c(C(F)(F)F)nn1-c1c(Cl)cc(C(F)(F)F)cc1Cl
117 | O=C(c1ccncc1)c1cc(-c2ccc(Cl)cc2)c(N2CCOCC2)s1
185 | CCCOc1ccccc1-c1nc2cc(N)ccc2c(=O)[nH]1
220 to 224 | O=c1nc(NCc2ccccc2)n2c3c1cnn3C(c1cccc(C(F)(F)F)c1)=CC2
> 260 | COc1cccc2[nH]c3c(c12)C(=O)N=NC3=O
252 | Nc1cc(-c2noc(-c3cnn4c(C(F)(F)F)cc(-c5ccc(Cl)cc5)nc34)n2)ccn1
100 | CCCCCOc1ccc(-c2cnc(C#N)nc2)cc1
223 to 224 | CC(C)(C)C(=O)OCOC(=O)c1[nH]c2ccccc2c1Nc1ccncc1
99 to 101 | Nc1c(F)cncc1F
170 to 180 | COc1ccccc1C(O)(CC#N)c1ccccc1OC
153 to 155 | CCOC1Nc2c(O)cccc2C(=O)N2CCCC12 (stereo not drawn)
159 to 160 | Cc1nn(C)c2c1c1oc(=O)c(Sc3ccccc3)c(O)c1c(=O)n2Cc1ccc(F)cc1
65 | CCN(CC)C(=O)C=Cc1ccccc1
159 to 160 | CCc1nccn1CCCOCc1cccc(SC)c1NC(=O)CC1c2ccccc2Oc2ccccc21

melting point [°C] | SMILES
117 to 119 | COC(=O)C(C(=O)OC)C(Cc1c([N+](=O)[O-])cccc1C(F)(F)F)c1ccc(OC)cc1 (stereo not drawn)
241 | CC(C)(C)c1ccc(-c2cc(C(=O)/C=C/c3ccc(C(=O)O)cc3)cc3c2C(C)(C)CCC3(C)C)cc1
152 | COc1nc(NC(=O)NS(=O)(=O)c2csc3ccccc23)nc(OC)n1
111 to 112 | CC(C)(C)OC(=O)Nc1sc(Cl)nc1Cl
278 to 282 | Cc1cc2c(=O)[nH][nH]c(=O)c2n1CC(C)C
96 to 97 | O=C(OC(c1ccccc1)c1ccccc1)C1=CCC2C1C(=O)C2(Cl)Cl (stereo not drawn)
135 to 137 | COc1cc(COc2cc(NC(C)=O)c(Cl)cc2C(=O)CCCCCl)cc(OC)c1
135 to 137 | CSc1nc(C)c(CCCl)c(=O)n1C
199 to 201 | Cc1cccc2c1N(C)C(=O)C(NC(=O)Nc1cccc(-c3nnn[nH]3)c1)N=C2C1CCCCC1 (stereo not drawn)
82 | C(=Cc1ncon1)c1ccccc1
223 to 225 | N#CCC(=O)Nc1ccc(-c2nncn2-c2ccc(F)cc2)cc1
146 to 148 | CC(=O)N1CCCC2=C1CCc1cc(Cl)c(Cl)cc12
200 | Cc1csc(-c2cc(=O)n(C)c3ccc(C(O)(c4ccc(Cl)cc4)c4cncn4C)cc23)n1 (stereo not drawn)
133 to 134 | COc1ccc(CCOc2c(-c3ccc(S(C)(=O)=O)cc3)cnn(CC(F)(F)F)c2=O)cc1OC
111 to 112 | COCCOC(=O)c1cnn2c(-c3cccc(C(F)(F)F)c3)ccnc12
80 to 81 | CCOC(=O)C1(C(=O)OCC)CCNC(=O)CC1
242 to 243 | N#Cc1c(-c2ccc(Cl)cc2)[nH]c(C(F)(F)F)c1Cl
200 to 205 | CC(Oc1ccc2nc(-c3ccccc3OC(N)=O)sc2c1)c1ccccc1C(F)(F)F (stereo not drawn)
115 to 118 | CCN(CC)CCOc1ccc2c3c(cccc13)C(=O)c1c-2oc2ccccc12
79 to 85 | COc1cccc2c1CC(C(=O)NCCOc1ccc(C(=O)OC(C)(C)C)cc1)N2S(=O)(=O)c1ccc(-c2ccc(F)cc2Cl)cc1 (stereo not drawn)
68 to 69 | CC1(Cl)C(=O)N(c2ccc(Cl)c(Cl)c2)N=C1C#N (stereo not drawn)
216 to 217 | CC(C)(C)OC(=O)Nc1ccc(C#Cc2ccccc2F)cc1NC(=O)CC(=O)c1cccc(C#N)c1
158 to 160 | CC(=O)OCc1csc(Nc2ccc(Oc3ccccc3)cn2)n1

melting point [°C] | SMILES
138 to 139 | Cc1cc(S(F)(F)(F)(F)F)ccc1C(=O)O
132 to 134 | COc1ccc(Nc2nc(NC3CCCCCC3)nc(Oc3ccc(C#CC(C)(C)O)cc3)n2)cc1Cl
132 to 142 | CCCCCCCCCCCCCCCCCC(=O)Nc1cccc(C(=O)N(CC(=O)O)CC(=O)O)c1
58 to 59 | COC(=O)Cc1coc2c(O)cccc12
122 | CN(C)C=NS(=O)(=O)c1cccc(Br)c1
146 to 149 | COc1ccsc1-c1nsc2ccc(N3C(=O)C4=C(CCCC4)C3=O)cc12
198 to 200 | C=Cc1c(F)c(N2CCN(CC)CC2)c(F)c2c1c(=O)c(C(=O)O)cn2C1CC1
135 to 138 | CC(C)NC(=O)Nc1cc(C(C)(C)C)on1
63 to 68 | CCCCc1ccc(S(=O)(=O)CC(O)(CS(=O)(=O)c2ccc(OC)cc2)C(=O)NO)cc1 (stereo not drawn)
114 to 115 | NS(=O)(=O)Oc1ccc2ccccc2c1
179 to 180 | COc1nc2c(c3ccccc13)c1cc(Cl)ccc1n2C
211 to 213 | COc1ccc(-c2cnc3[nH]cc(C(=O)C(C)(C)C)c3n2)cc1N1CCCC1
53 to 55 | CCCCC12CCC3=C(CCc4cc(OC)ccc43)C1=CCC2=O (stereo not drawn)
113 to 114 | CCOC(=O)c1c(-c2ccccc2C)c2cc(Cl)ccc2n(C)c1=O
99 | CC(=O)C=Cc1c(C)c(C)c(C)c2ccoc12
157 to 158 | Fc1ccc(N2CCN(CCCOc3ccc(-c4nnco4)cc3)CC2)cc1
83 to 86 | CC1(C)COc2ccc(C[C@H](N)[C@H](O)c3cccc(Cl)c3)cc21 (racemic)
122 | COc1cc2c(cc1OC)C(=O)C(CC=O)C2 (racemic)
118 to 120 | CCC1=NN=C(CC)NN1
67 to 69 | CC(C)(C)OC(=O)NCc1cc(-c2cccnc2)no1
165 | CS(=O)(=O)N1CCN([C@@H](CNS(=O)(=O)c2ccc(OCc3ccccc3)cc2)C(=O)NO)CC1
245 to 252 | O=c1[nH]c2cc(F)c(F)cc2cc1P(=O)(O)O
123 | CCN(CC(O)CCl)c1ccc2c(c1)C(=O)N(C)C2=O (stereo not drawn)

SMILES | melting point [°C]
COC1N=C(c2ccccc2)c2cc(Cl)ccc2-n2nc(C(N)=O)nc21 (stereo not drawn) | 264 to 267
CCc1cc(C=C[N+](=O)[O-])c(OC)nc1C | 105 to 107
CN1C(=O)CN=C(c2ccccc2Cl)c2cc([N+](=O)[O-])ccc21 | 220
Cc1c(C(=O)c2cccc(Cl)c2Cl)c2cccc(Br)c2n1CCCCl | 139
COC12CC(c3nnc(-c4cncc(Br)c4)o3)CN(C)C1Cc1c[nH]c3cccc2c13 (stereo not drawn) | 155 to 157
CCCN(CCC)C1Cc2cccc3c2n(c(=O)n3C)C1 (stereo not drawn) | 83 to 85
